Measurements: patent US20240329050A1, “METHODS OF DETECTING PENTASACCHARIDES AND TREATMENT AND MONITORING OF LYSOSOMAL STORAGE DISEASE” (Washington University, priority 2021, published 2024)
Several values for one entry are separate records, joined by “and”; a condition that tells them apart may be missing. Equal values may be shown once.

Experiment: Validation of stability of H3N2b in urine, plasma, CSF, stock solution and standard curve matrix
Type: physicochemical, human
Experimental: Validation of stability-The long-term storage, freeze/thaw stabilities, and stabilities on the bench-top and in the autosampler were determined at the LQC and HQC concentration levels (n=3). Long-term storage stabilities of […]-80° C. in urine, plasma, CSF were tested. Bench-top stabilities of […] were evaluated in urine at room temperature, in plasma at room temperature, in CSF at room temperature and 4° C. Freeze/thaw stability in urine, plasma, CSF was tested by freezing the samples at -80° C. overnight, followed by thawing to room temperature the next day. This process was repeated three times. […] Stock solution stability was established by quantification of samples from dilution of two stock solutions that were stored at -20° C. and at room temperature on the bench, respectively, to the final solution (10000 ng/mL in water). The stabilities of […] in the matrix of standard curve for urine, plasma, CSF were test after storage at room temperature and at -80° C. […] standard curve was established each time.

- Stable after freeze/thaw cycles (CSF): 3 freeze/thaw cycles
- Stable for (CSF at 4° C.): 1 days
- Stable for (CSF at −80° C.): 125 days
- Stable for (CSF, room temperature): 0.083 days
- Stable for (matrix of standard curve for urine, plasma, CSF, room temperature): 1 days
- Stable after freeze/thaw cycles (plasma): 3 freeze/thaw cycles
- Stable for (plasma at −80° C.): 158 days
- Stable for (plasma, room temperature): 1 days
- Stable for (processed CSF samples at 4° C.): 3 days
- Stable for (processed plasma samples at 4° C.): 3 days
- Stable for (processed urine samples at 4° C.): 3 days
- Stable for (standard curve samples for CSF at −80° C.): 125 days
- Stable for (standard curve samples for plasma at −80° C.): 158 days
- Stable for (standard curve samples for urine at −80° C.): 194 days
- Stable for (stock solution at −20° C.): 232 days and 231 days
- Stable for (stock solution, room temperature): 1 days
- Stable after freeze/thaw cycles (urine): 3 freeze/thaw cycles
- Stable for (urine at −80° C.): 194 days
- Stable for (urine, room temperature): 1 days
SMILES: CC(=O)N[C@H]1[C@H](O[C@@H]2[C@@H](O[C@@H]3[C@H](O)[C@H](O[C@H]4[C@H](O)[C@@H](NC(C)=O)C(O)O[C@@H]4CO)O[C@H](CO)[C@H]3O)O[C@H](CO)[C@@H](O)[C@@H]2O)O[C@H](CO)[C@@H](O[C@@H]2O[C@H](CO)[C@H](O)[C@H](O)[C@H]2O)[C@@H]1O (stereo partly drawn) [H3N2b, O-β-D-galactopyranosyl-(1→4)-O-(2-acetamido-2-deoxy-β-D-glucopyranosyl)-(1→2)-O-α-D-mannopyranosyl-(1→3)-O-β-D-mannopyranosyl-(1→4)-2-acetamido-2-deoxy-α,β-D-glucopyranose]
